Assay results reported in the NIST ThermoML archive (doi:10.1016/j.tca.2016.07.005).

Assay: xn = mol fraction of the nth substance listed
Settings: 101.3 kPa, Liquid; for viscosity: Concentric cylinders viscometry; for mass density: Vibrating tube method

O=S1(=O)CCCC1 [sulfolane] + CCCC[n+]1ccn(C)c1.O=S(=O)([N-]S(=O)(=O)C(F)(F)F)C(F)(F)F
Settings	mass density [kg/m3]	viscosity [mPa·s]
293.15 K, x2 = 0.1	1315.1	16.7
293.15 K, x2 = 0.1999	1345.9	19.8
293.15 K, x2 = 0.3001	1368.7	23.8
293.15 K, x2 = 0.4	1386.1	28.2
293.15 K, x2 = 0.5001	1400.1	32.9
293.15 K, x2 = 0.5999	1411.3	38
293.15 K, x2 = 0.7	1420.8	43.2
293.15 K, x2 = 0.7995	1428.6	49.6
293.15 K, x2 = 0.8985	1435.3	55.1
298.15 K, x2 = 0	1266.4	11.9
298.15 K, x2 = 0.1	1310.6	14.8
298.15 K, x2 = 0.1999	1341.3	17
298.15 K, x2 = 0.3001	1364.6	19.9
298.15 K, x2 = 0.4	1381.3	23.2
298.15 K, x2 = 0.5001	1395.3	26.7
298.15 K, x2 = 0.5999	1406.5	30.8
298.15 K, x2 = 0.7	1416	34.7
298.15 K, x2 = 0.7995	1423.8	39.8
298.15 K, x2 = 0.8985	1430.5	44.4
303.15 K, x2 = 0	1259.4	10.5
303.15 K, x2 = 0.1	1306.1	12.8
303.15 K, x2 = 0.1999	1336.7	14.3
303.15 K, x2 = 0.3001	1359.1	16.5
303.15 K, x2 = 0.4	1376.6	18.8
303.15 K, x2 = 0.5001	1390.5	21.5
303.15 K, x2 = 0.5999	1401.7	24.7
303.15 K, x2 = 0.7	1411.1	27.3
303.15 K, x2 = 0.7995	1419	31.1
303.15 K, x2 = 0.8985	1425.7	35.1
313.15 K, x2 = 0	1251.7	8.1
313.15 K, x2 = 0.1	1297	9.7
313.15 K, x2 = 0.1999	1327.5	10.7
313.15 K, x2 = 0.3001	1349.4	12.3
313.15 K, x2 = 0.4	1367.2	13.4
313.15 K, x2 = 0.5001	1381.1	15.4
313.15 K, x2 = 0.5999	1392.2	17.6
313.15 K, x2 = 0.7	1401.6	18.7
313.15 K, x2 = 0.7995	1409.4	21.2
313.15 K, x2 = 0.8985	1416.1	24.4
323.15 K, x2 = 0	1244	6.4
323.15 K, x2 = 0.1	1288	7.7
323.15 K, x2 = 0.1999	1318.3	8.4
323.15 K, x2 = 0.3001	1340.2	9.7
323.15 K, x2 = 0.4	1357.8	10.2
323.15 K, x2 = 0.5001	1371.6	11.9
323.15 K, x2 = 0.5999	1382.8	13.6
323.15 K, x2 = 0.7	1392.1	14.1
323.15 K, x2 = 0.7995	1399.9	16
323.15 K, x2 = 0.8985	1406.6	18.4
333.15 K, x2 = 0	1235.4	5.2
333.15 K, x2 = 0.1	1279	5.7
333.15 K, x2 = 0.1999	1309	6.3
333.15 K, x2 = 0.3001	1331	7.3
333.15 K, x2 = 0.4	1348.4	7.5
333.15 K, x2 = 0.5001	1362.2	9.2
333.15 K, x2 = 0.5999	1373.3	10.5
333.15 K, x2 = 0.7	1382.6	10.8
333.15 K, x2 = 0.7995	1390.4	12.2
333.15 K, x2 = 0.8985	1397.1	14.1
343.15 K, x2 = 0	1225	4.3
343.15 K, x2 = 0.1	1269.9	4.6
343.15 K, x2 = 0.1999	1299.8	5.1
343.15 K, x2 = 0.3001	1321.8	5.9
343.15 K, x2 = 0.4	1339.1	6.2
343.15 K, x2 = 0.5001	1352.8	7.3
343.15 K, x2 = 0.5999	1363.9	8.2
343.15 K, x2 = 0.7	1373.2	8.6
343.15 K, x2 = 0.7995	1381	9.5
343.15 K, x2 = 0.8985	1387.6	10.7
